Reference: US6300353A, “Azoles for treatment of fungal infections” (Basilea Pharmaceutica AG, a Swiss Company, priority 1998, dated 2001)
Where two headings read alike, the source gives them in different places.

Assays:
[1] = Conversion of compounds of formula (I') to compounds of formula (II) in human plasma; format: in vitro ADME; conditions: 37° C.; for remaining at 5 min / metabolised at 5 min: incubation time 5 min; for remaining at 5 min: read-out: Observed (%) Comp. (I'); for metabolised at 5 min: read-out: Observed (%) Compound (II)
Procedure: In addition, the azole of formula I' are chemically stable in aqueous solution at room temperature more than three days, but are efficiently converted into compounds of formula (II) in either mouse, rat, monkey or human plasma. The conversion of representatives of the new azole compounds of the general formula (I') to compounds of formula (II) in human plasma are shown in Table 4. The compounds of formula (I') were incubated with human plasma at a concentration of 10.quadrature.g/ml at 37° C. for up to 20 min.

[2] = tested on: Aspergillus fumigatus; assay: In vivo efficacy, systemic aspergillosis model; conditions: in Rattus norvegicus, 336 h
[3] = tested on: Candida albicans; assay: In vivo efficacy, systemic candidiasis model; conditions: in Rattus norvegicus, 336 h
[4] = tested on: Aspergillus fumigatus; assay: In vivo efficacy, pulmonary aspergillosis model; conditions: in Rattus norvegicus, 336 h
[5] = physchem; conditions: water
[6] = target: CYP2C9 (Homo sapiens, UniProt P11712); assay: In vitro P450 inhibitory activity (CYP2C9, tolbutamide 4-hydroxylation), human liver microsomes
Procedure: Each azole compound at different concentrations was incubated with a specific substrate for each CYP, human liver microsomes and NADPH at 37° C. […] The substrate concentrations and incubation conditions were as follows:

[7] = target: CYP3A4 (Homo sapiens, UniProt P08684); assay: In vitro P450 inhibitory activity (CYP3A4, midazolam 1-hydroxylation), human liver microsomes; format: in vitro ADME; conditions: midazolam 10 μM, 10 min, read-out: P450 inhibition IC50, CYP 3A4
[8] = iv, read-out: Effective dose 50% (ED50), systemic aspergillosis, i.v.
[9] = po, read-out: Effective dose 50% (ED50), systemic candidiasis, p.o.
[10] = iv, read-out: Effective dose 50% (ED50), pulmonary aspergillosis, i.v.

CYP2C9, sequence (P11712 whole entry): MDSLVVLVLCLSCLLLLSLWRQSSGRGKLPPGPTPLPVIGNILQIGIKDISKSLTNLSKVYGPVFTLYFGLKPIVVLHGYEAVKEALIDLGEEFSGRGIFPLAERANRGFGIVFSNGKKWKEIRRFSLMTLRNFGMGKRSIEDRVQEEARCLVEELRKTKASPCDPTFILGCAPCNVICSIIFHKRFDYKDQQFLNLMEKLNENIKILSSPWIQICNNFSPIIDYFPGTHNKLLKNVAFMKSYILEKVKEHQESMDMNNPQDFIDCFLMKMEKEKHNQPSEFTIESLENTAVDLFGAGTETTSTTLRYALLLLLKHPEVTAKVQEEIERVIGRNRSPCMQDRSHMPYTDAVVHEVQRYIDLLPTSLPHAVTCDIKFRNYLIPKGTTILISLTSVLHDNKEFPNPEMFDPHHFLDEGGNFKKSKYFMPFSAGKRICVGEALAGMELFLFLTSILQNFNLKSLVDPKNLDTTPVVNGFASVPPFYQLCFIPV
CYP3A4, sequence (P08684 whole entry): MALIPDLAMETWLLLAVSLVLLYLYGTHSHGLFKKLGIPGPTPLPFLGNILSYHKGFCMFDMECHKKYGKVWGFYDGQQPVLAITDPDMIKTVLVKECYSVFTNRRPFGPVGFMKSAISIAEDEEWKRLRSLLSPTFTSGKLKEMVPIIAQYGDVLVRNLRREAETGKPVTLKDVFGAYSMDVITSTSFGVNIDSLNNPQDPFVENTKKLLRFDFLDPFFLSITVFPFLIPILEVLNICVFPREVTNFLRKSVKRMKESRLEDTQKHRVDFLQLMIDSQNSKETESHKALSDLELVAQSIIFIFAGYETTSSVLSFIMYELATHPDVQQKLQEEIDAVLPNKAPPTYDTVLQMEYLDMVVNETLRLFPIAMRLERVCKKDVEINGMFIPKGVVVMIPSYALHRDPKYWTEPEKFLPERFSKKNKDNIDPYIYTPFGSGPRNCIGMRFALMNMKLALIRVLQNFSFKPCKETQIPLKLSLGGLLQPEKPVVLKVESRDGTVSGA

SMILES	half-life [1]	remaining at 5 min [1]	metabolised at 5 min [1]	ED50 [2, 8]	ED50 [3, 9]	ED50 [4, 10]	solubility [5]	IC50 [6]	other results
CNCC(=O)Oc1c(C)cc(C[n+]2cnn(C[C@](O)(c3cc(F)ccc3F)[C@@H](C)c3nc(-c4ccc(C#N)cc4)cs3)c2)cc1C.[Br-] [Example 1, 1-{(2R,3R)-3-[4-(4-cyano-phenyl)-thiazol-2-yl]-2-(2,5-difluoro-phenyl)-2-hydroxy-butyl}-4-(3,5-dimethyl-4-methylaminoacetoxy-benzyl)-1H-[1,2,4]triazol-4-ium bromide]	< 1 min	< 5%	96%	3 µmol/kg	5.3 µmol/kg	8 ± 4.2 µmol/kg	22 mg/mL		ED50 ([2]; po, read-out: Effective dose 50% (ED50), systemic aspergillosis, p.o.): 5.8 µmol/kg; ED50 ([3]; iv, read-out: Effective dose 50% (ED50), systemic candidiasis, iv.): 5.3 µmol/kg; ED50 ([4]; po, read-out: Effective dose 50% (ED50), pulmonary aspergillosis, p.o.): 7.4 ± 3.8 µmol/kg
CNCC(=O)Oc1c(C)cc(C[n+]2cnn(C[C@](O)(c3cc(F)c(F)cc3F)[C@@H](C)c3nc(-c4ccc(C#N)cc4)cs3)c2)cc1C.Cl.[Br-] [Example 3, 1-[(2R,3R)-3-[4-(4-cyanophenyl)thiazol-2-yl]-2-hydroxy-2-(2,4,5-trifluorophenyl)butyl]-4-(3,5-dimethyl-4-methylaminoacetoxybenzyl)-1H-[1,2,4]triazol-4-ium bromide hydrochloride]	< 1 min	< 5%	89%				> 7 mg/mL		
C[C@@H](c1nc(-c2ccc(C#N)cc2)cs1)[C@](O)(Cn1cncn1)c1cc(F)ccc1F [Example 4]								35.1 µM	
C[C@@H](c1nc(-c2ccc(C#N)cc2)cs1)[C@](O)(Cn1cncn1)c1cc(F)c(F)cc1F [Example 5]								18.4 µM	IC50 [7]: 23 µM
OC(Cn1cncn1)(Cn1cncn1)c1ccc(F)cc1F [Fluconazole, reference compound]					1.4 µmol/kg				
CCC(C)n1ncn(-c2ccc(N3CCN(c4ccc(OCC5COC(Cn6cncn6)(c6ccc(Cl)cc6Cl)O5)cc4)CC3)cc2)c1=O (stereo not shown) [Itraconazole, reference compound]				4 µmol/kg	3.9 ± 2.2 µmol/kg	2 ± 1.1 µmol/kg		25.7 µM	
